Experimental data taken from patent US20090136720A1, “Azo Compound, Ink Composition, Recording Method and Colored Article” (priority 2006, published 2009).

Test: Solubility of the azo compound
Type: physicochemical
Details: water; sodium salt

solubility: ≥ 100 mg/mL
Structure (SMILES): Cc1cc(N=Nc2c(S(=O)(=O)O)cc3c(S(=O)(=O)O)c(N=Nc4cc(S(=O)(=O)O)c5cc(S(=O)(=O)O)c(N=Nc6ccc([N+](=O)[O-])cc6S(=O)(=O)O)c(O)c5c4N)ccc3c2O)c(OCCCS(=O)(=O)O)cc1N=Nc1cc(S(=O)(=O)O)cc2cc(S(=O)(=O)O)cc(O)c12 [Compound No. 3]
